From patent US5405843A, “Quinoline derivatives” (Mitsui Toatsu Chemicals, Incorporated, priority 1988, dated 1995)

Test system: Adriamycin resistant strain 2780 AD cells of human ovarian cancer A2780 cells
Assay: Potentiating effect on incorporation of 3H-vincristine into adriamycin-resistant cancer cells
Type: cell-based
Conditions: 20 nM 3H-vincristine; for activity at 1 µg/mL / activity at 10 µg/mL: Homo sapiens, 2780AD, 2 h, control = 100, read-out: 3H-vincristine accumulation; for activity at 10 µg/mL: compound 10 μg/ml
Method: Potentiating Effect of the Compounds on Incorporation of Anticancer Drugs into Drug-resistant Cancer Cells
Adriamycin resistant strain 2780 AD cells of human ovarian cancer A2780 cells (A. M. Rogan et al., Science 224, 994-996, 1984) were suspended at a concentration of 1×10^6 /ml in RPMI-1640 medium supplemented with 5% fetal calf serum, and 1 ml of the cancer cell suspension was dispensed into each well of a multi-well culture plate (24 wells, […] in diameter) and then incubated at 37° C. in an atmosphere of 5% CO2. After 24 hours incubation, the medium in each well was replaced by 0.5 ml of RPMI-1640 medium supplemented containing 20 nM ^3 H-vincristine (1×10^4 dpm/pmol), 5% fetal calf serum and 10 mM Hepes buffer. Five microliters of a solution of the compound to be tested, which had been dissolved in DMSO and diluted with […] (at a concentration of 1.0 microgram/ml or 10.0 micrograms/ml), was added to each well and the incubation was continued at 37° C. in 5% CO2 for 2 hours. The resultant cells were washed in cold saline-phosphate buffer. In each well was added 0.5 ml of 0.2N NaOH, and the resulting cell suspension in each well was independently transferred into a vial and then heated in a water bath at 56° C. for 30-60 minutes to dissolve the cells. After adding 4 ml of acid aquazole 2, the amount of ^3 H-vincristine incorporated into the cells was determined by a fluid scintillation counter.

SMILES | activity at 1 µg/mL (compound 1 μg/ml) [%] | activity at 10 µg/mL [%] | 3H-vincristine accumulation (compound 1 μg/ml, 2 hours, control = 100, 120 min) [%]
CN(CC(O)CN1CCN(C(c2ccccc2)c2ccccc2)CC1)c1cccc2ncccc12 (stereo not drawn) [Example 30, N-[3-(4-Diphenylmethylpiperazine-1-yl)-2-hydroxypropyl]-N-methyl-5-quinolineamine] | 597 | – | –
c1ccc(C(c2ccccc2)N2CCN(CCCCOc3cccc4ncccc34)CC2)cc1 [Example 33, 5-[4-(4-Diphenylmethylpiperazine-1-yl)butoxy]quinoline] | 447 | – | –
CC(=O)N(CC(O)CN1CCN(C(c2ccccc2)c2ccccc2)CC1)c1cccc2ncccc12 (stereo not drawn) [Example 40, 5-[N-Acetyl-(3-(4-diphenylmethylpiperazine-1-yl)-2-hydroxypropylamino)]quinoline] | 259 | – | –
OC(COc1cccc2ncccc12)CN1CCN(C(c2ccccc2)c2ccncc2)CC1 (stereo not drawn) [Example 52, 5-(3-[4-((4-Pyridyl) -phenylmethyl)piperazine-1-yl]-2-hydroxypropoxy)quinoline] | 379 | 910 | –
CN(C(=O)CCN1CCN(C(c2ccccc2)c2ccccc2)CC1)c1cccc2ncccc12 [Example 37, 5-[N-Methyl-(3-(4-diphenylmethylpiperazine-1-yl)propionamido)]quinoline] | 549 | 1000 | –
OC(COc1cccc2nc(C(F)(F)F)cc(C(F)(F)F)c12)CN1CCN(C2c3ccccc3CCc3ccccc32)CC1 (stereo not drawn) [Example 76, 5-[3-(4-(Dibenzosuberane-5-yl)piperazine-1-yl)-2-hydroxypropoxy]-2,4-bis(trifluoromethyl)quinoline] | 130 | 304 | –
Cc1cc(C(F)(F)F)nc2cccc(OCC(O)CN3CCN(C(c4ccccc4)c4ccccc4)CC3)c12 (stereo not drawn) [Example 56, 2-Trifluoromethyl-4-methyl-5-[3-(4-diphenylmethylpiperazine-1-yl)-2-hydroxypropoxy]quinoline] | 321 | 735 | –
OC(COc1nccc2ccccc12)CN1CCN(C(c2ccccc2)c2ccccc2)CC1 (stereo not drawn) [Example 48, 1-[3-(4-Diphenylmethylpiperazine-1-yl)-2-hydroxypropoxy]isoquinoline] | 215 | 798 | –
OC(COc1cccc2nccnc12)CN1CCN(C(c2ccccc2)c2ccccc2)CC1 (stereo not drawn) [Example 50, 5-[3-(4-Diphenylmethylpiperazine-1-yl)-2-hydroxypropoxy]quinoxaline] | 559 | 668 | –
CS(=O)(=O)c1ccc2c(OCC(O)CN3CCN(C4c5ccccc5CCc5ccccc54)CC3)cccc2n1 (stereo not drawn) [Example 71, 2-Methylsufonyl-5-[3-(4-(dibenzosuberane-5-yl)piperazine-1-yl)-2-hydroxypropoxy]quinoline] | 501 | 921 | –
OC(CSc1cccc2ncccc12)CN1CCN(C(c2ccccc2)c2ccccc2)CC1 (stereo not drawn) [Example 31, 5-[3-(4-Diphenylmethylpiperazine-1-yl)-2-hydroxypropylthio]quinoline] | – | 799 | 428
OC(COc1cccc2ncccc12)CN1CCN(C2c3ccccc3Oc3ccccc32)CC1 (stereo not drawn) [Example 72, 5-[3-(4-(Xanthene-9-yl)piperazine-1-yl)-2-hydroxypropoxy]quinoline] | 112 | 144 | –
OC(CNCCC(c1ccccc1)c1ccccc1)COc1cccc2ncccc12 (stereo not drawn) [Example 69, 5-[3-(3,3-Diphenylpropylamino)-2-hydroxypropoxy]quinoline] | 738 | 941 | –
CSc1ccc2c(OCC(O)CN3CCN(C4c5ccccc5CCc5ccccc54)CC3)cccc2n1 (stereo not drawn) [Example 64, 2-Methylthio-5-[3-(4-(dibenzosuberane-5-yl)piperazine-1-yl)-2-hydroxypropoxy]quinoline] | 425 | 900 | –
OC(COc1cccc2ncccc12)CN1CCC(C2(O)c3ccccc3C=Cc3ccccc32)CC1 (stereo not drawn) [Example 79, 5-[2-Hydroxy-3-(4-(5-hydroxydibenzosuberene-5-yl)piperidine-1-yl)propoxy]quinoline] | 841 | 963 | –
